From US9725477B2, “Platinum compounds of malonic acid derivative having leaving group containing amino or alkylamino” (BEIJING FSWELCOME TECHNOLOGY DEVELOPMENT CO., LTD, priority 2012, dated 2017)
Where two headings read alike, the source gives them in different places.

What was measured:
[1] = tested on: Breast cancer MCF-7 cisplatin resistance strain; assay: MTT cytotoxicity, breast cancer MCF-7 cisplatin resistance strain; assay type: cell-based; details: n = 6
[2] = tested on: Lung cancer A549; assay: MTT cytotoxicity, lung cancer A549; details: read-out: cytotoxicity IC50; Lung cancer A549, MTT, n = 6, Table 4
Description: Cell morphologies were observed after being cultivated for 24 hours.

[3] = tested on: Lung cancer H292; assay: MTT cytotoxicity, lung cancer H292; assay type: cell-based; details: Lung cancer H292, MTT, n = 6; read-out: cytotoxicity IC50
[4] = tested on: Breast cancer MCF-7; assay: MTT cytotoxicity, breast cancer MCF-7; assay type: cell-based; details: Breast cancer MCF-7, MTT, n = 6
[5] = tested on: normal mice; assay: in vivo; details: Table 3; mice, single intravenous administration, 14 days observation
Description: (§1) Kunming mice with 4˜6 weeks old and 18 g˜22 g by weight were taken, 50% males and 50% females. […] The condition of mortality and toxicity were observed after administration. Totally observing for 14 days, LD50 value was calculated using Bliss method according to the mortality.

[6] = tested on: Alveolar epithelial cells BEAS-2B; assay: MTT cytotoxicity, alveolar epithelial cells BEAS-2B; assay type: cell-based; details: Alveolar epithelial cells BEAS-2B, MTT, n = 6; read-out: cytotoxicity IC50
[7] = existing platinum drugs, background section; cited from earlier work
[8] = tested on: Esophagus cancer ECA109; assay: MTT cytotoxicity, esophagus cancer ECA109; assay type: cell-based; details: n = 6
[9] = tested on: Testis cell ST; assay: MTT cytotoxicity, testis cell ST; assay type: cell-based; details: n = 6
[10] = tested on: gastric cancer MGC803; assay: MTT cytotoxicity, gastric cancer MGC803; assay type: cell-based; details: n = 6
[11] = tested on: colon cancer SW480; assay: MTT cytotoxicity, colon cancer SW480; assay type: cell-based; details: colon cancer SW480, MTT, n = 6; read-out: cytotoxicity IC50
[12] = tested on: Lung cancer Lewis; assay: MTT cytotoxicity, lung cancer Lewis; assay type: cell-based; details: Lung cancer Lewis, MTT, n = 6; read-out: cytotoxicity IC50
[13] = MTT cytotoxicity, alveolar epithelial cells BEAS-2B; assay type: cell-based; details: human, BEAS-2B alveolar epithelial cells; Alveolar epithelial cells BEAS-2B, MTT, n = 6
[14] = Solubility in water; details: water
[15] = in vivo; details: both, Kunming, mouse, in vivo, iv
Description: as §1

[16] = MTT cytotoxicity, testis cell ST; assay type: cell-based; details: pig, ST testis cells, n = 6

CCN(CC)CCCCC1C(=O)[O][Pt]2([NH]C3CCCCC3[NH]2)[O]C1=O.Cc1ccc(S(=O)(=O)O)cc1 (racemic) [Compound 3, 2-(4-diethylaminobutyl)-malonate•cis-(1,2-trans-cyclohexanediamine) platinum (II) tosilate]
IC50 [1]: 21 µM
IC50 [2]: 8 µM
IC50 [3]: 6 µM
IC50 [4]: 7 µM
LD50 vALUE [5]: 0.815 mmol/kg

N.N.O=C([O-])C1(C(=O)[O-])CCC1.[Pt+2] [Carboplatin, cis-1,1-cyclobutanedicarboxylatodiamminoplatinum, reference compound]
IC50 [6]: 37 µM
solubility [7]: 17.8 mg/mL
IC50 [1]: 255 µM
IC50 [2]: 232 µM
IC50 [8]: 52 µM
IC50 [9]: 195 µM
IC50 [10]: 625 µM
IC50 [3]: 55 µM
IC50 [4]: 103 µM
IC50 [11]: 87 µM
LD50 vALUE [5]: 0.336 mmol/kg
IC50 [12]: 38 µM

CC1CCCN1CCCCC1C(=O)[O][Pt]([NH2])([NH2])[O]C1=O (stereo not drawn) [Compound 10, 2-(4-(2-methyl-1-tetrahydropyrrolidinyl)-butyl)-malonate•cis-diamine platinum (II) phosphate]
IC50 [13]: 3 µM
solubility [14]: > 300 mg/mL
LD50 [15]: 791 µmol/kg

CCN(CC)CCCCC1C(=O)[O][Pt]([NH2])([N]2CCCCC2)[O]C1=O (stereo not drawn) [Compound 28, 2-(4-diethylaminobutyl)-malonate•cis-ammonia•piperidine platinum (II) acetate]
IC50 [16]: 61 µM
solubility [14]: > 300 mg/mL
LD50 at 14 days [15]: 725 µmol/kg
